Source: patent US11000033B2, “Ketone or oxime compound, and herbicide” (NISSAN CHEMICAL CORPORATION, priority 2014, dated 2021)

Key:
Format in all cases: in vivo
Veronica persica [1] = assay: Test Example 5: herbicidal effect by foliage application, plastic box (symbol R); conditions: 320 g/ha, 3 weeks after application
How it was run: (§1)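 Greenhouse foliar test: seedlings at 14 days, grown 25° C. to 30° C. in sterilized diluvial soil; compound applied as an aqueous dilution of an emulsion; response read 3 weeks after spraying.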

Digitaria ciliaris [2] = assay: Test Example 4: herbicidal effect by soil treatment (symbol F); conditions: application herbicide amount 320 g/ha
How it was run: (§2)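 Seeds were sown in sterilized diluvial soil, covered with about 1.5 cm of soil, and the soil surface was sprayed with a water-diluted emulsion of the compound at a predetermined rate. Plants grew in a greenhouse at 25° C. to 30° C.; effects were scored visually 3 weeks after application.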

[3] = system: Echinochloa crus-galli var. crus-galli; assay: Test Example 4: herbicidal effect by soil treatment (symbol H); conditions: application herbicide amount 320 g/ha
How it was run: as §2

Stellaria media [4] = assay: Test Example 4: herbicidal effect by soil treatment (symbol P); conditions: application herbicide amount 320 g/ha
How it was run: as §2

Digitaria ciliaris [5] = assay: Test Example 5: herbicidal effect by foliage application, plastic box (symbol F); conditions: 320 g/ha, 3 weeks after application
How it was run: as §1

rice plant = assay: Test Example 5: effect on crop by foliage application, plastic box (symbol b); conditions: 320 g/ha, 3 weeks after application
How it was run: (§3)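 Box culture: sterile diluvial soil, seeds spot-sown, ~1.5 cm cover, raised under glass at 25–30° C.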

Galium spurium [6] = assay: Test Example 5: herbicidal effect by foliage application, plastic box (symbol Q); conditions: 320 g/ha, 3 weeks after application
How it was run: as §1

Stellaria media [7] = assay: Test Example 5: herbicidal effect by foliage application, plastic box (symbol P); conditions: 320 g/ha, 3 weeks after application
How it was run: as §1

Galium spurium [8] = assay: Test Example 4: herbicidal effect by soil treatment (symbol Q); conditions: application herbicide amount 320 g/ha
How it was run: as §2

[9] = system: directly sowed rice plant; assay: Test Example 3: effect on crop by foliage application, Wagner pot (symbol b); conditions: application herbicide amount 320 g/ha, Table 24
How it was run: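 Alluvial soil in a 1/10000-are Wagner pot was flooded to a water depth of 0.1–0.5 cm. Echinochloa crus-galli var. crus-galli, Leptochloa chinensis, Cyperus difformis and rice were sown into it and grown in a greenhouse at 25–30 °C.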

beet [10] = assay: Test Example 5: effect on crop by foliage application, plastic box (symbol f); conditions: 320 g/ha, 3 weeks after application
How it was run: as §3

Abutilon theophrasti = assay: Test Example 5: herbicidal effect by foliage application, plastic box (symbol M); conditions: 320 g/ha, 3 weeks after application
How it was run: as §1

Lolium multiflorum Lam. = assay: Test Example 4: herbicidal effect by soil treatment (symbol K); conditions: application herbicide amount 320 g/ha
How it was run: as §2

corn = assay: Test Example 4: effect on crop by soil treatment (symbol c); conditions: application herbicide amount 320 g/ha
How it was run: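 Soil-treatment setup: crop and weed seeds were spot-sown into sterilized diluvial soil, then buried beneath approximately 1.5 cm of it, and the boxes were housed in a 25–30° C. greenhouse.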

Alopecurus myosuroides = assay: Test Example 4: herbicidal effect by soil treatment (symbol J); conditions: application herbicide amount 320 g/ha
How it was run: as §2

Setaria viridis = assay: Test Example 5: herbicidal effect by foliage application, plastic box (symbol G); conditions: 320 g/ha, 3 weeks after application
How it was run: as §1

soybean = assay: Test Example 4: effect on crop by soil treatment (symbol d); conditions: application herbicide amount 320 g/ha
How it was run: (§4)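 Crop seed is sown in spots together with several weed species in a box of sterilized diluvial soil. It is covered by about 1.5 cm of soil and kept in a greenhouse held between 25° C. and 30° C.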

Chenopodium album = assay: Test Example 5: herbicidal effect by foliage application, plastic box (symbol O); conditions: 320 g/ha, 3 weeks after application
How it was run: as §1

wheat = assay: Test Example 5: effect on crop by foliage application, plastic box (symbol e); conditions: 320 g/ha, 3 weeks after application
How it was run: as §3

Avena fatua = assay: Test Example 5: herbicidal effect by foliage application, plastic box (symbol I); conditions: 320 g/ha, 3 weeks after application
How it was run: as §1

rice = assay: Test Example 4: effect on crop by soil treatment (symbol b); conditions: application herbicide amount 320 g/ha
How it was run: as §4

beet [11] = assay: Test Example 4: effect on crop by soil treatment (symbol f); conditions: application herbicide amount 320 g/ha
How it was run: as §4

rapeseed = assay: Test Example 4: effect on crop by soil treatment (symbol g); conditions: application herbicide amount 320 g/ha
How it was run: as §4

Apera spica-venti = assay: Test Example 5: herbicidal effect by foliage application, plastic box (symbol L); conditions: 320 g/ha, 3 weeks after application
How it was run: as §1

Veronica persica [12] = assay: Test Example 4: herbicidal effect by soil treatment (symbol R); conditions: application herbicide amount 320 g/ha
How it was run: as §2

Row | Structure (SMILES) | R: Veronica persica, herbicidal effect grade (Veronica persica [1]) | F: Digitaria ciliaris, herbicidal effect grade (Digitaria ciliaris [5]) | b: directly sowed rice plant, effect on crop grade (rice plant) | Q: Galium spurium, herbicidal effect grade (Galium spurium [6]) | P: Stellaria media, herbicidal effect grade (Stellaria media [7]) | b (directly sowed rice plant) effect on crop grade [9] | f: beet, effect on crop grade (beet [10]) | M: Abutilon theophrasti, herbicidal effect grade (Abutilon theophrasti) | G: Setaria viridis, herbicidal effect grade (Setaria viridis) | O: Chenopodium album, herbicidal effect grade (Chenopodium album) | e: wheat, effect on crop grade (wheat) | I: Avena fatua, herbicidal effect grade (Avena fatua) | L: Apera spica-venti, herbicidal effect grade (Apera spica-venti) | F: Digitaria ciliaris, herbicidal effect grade (Digitaria ciliaris [2]) | H: Echinochloa crus-galli var. crus-galli, herbicidal effect grade [3] | P: Stellaria media, herbicidal effect grade (Stellaria media [4]) | Q: Galium spurium, herbicidal effect grade (Galium spurium [8]) | K: Lolium multiflorum Lam., herbicidal effect grade (Lolium multiflorum Lam.) | c: corn, effect on crop grade (corn) | J: Alopecurus myosuroides, herbicidal effect grade (Alopecurus myosuroides) | also measured
1 | CON=C(C)CC1C(O)=C(c2c(C)cc(C)cc2C)C(=O)C1C (mixture of isomers) [12-002] | 4 (Herbicidal ratio of 70% or higher and lower than 90%) | 5 (Herbicidal ratio of 90% or more (almost completely withered)) | 5 (Herbicidal ratio of 90% or more (almost completely withered)) | 4 (Herbicidal ratio of 70% or higher and lower than 90%) | 4 (Herbicidal ratio of 70% or higher and lower than 90%) | 5 (Herbicidal ratio of 90% or more (almost completely withered)) | 3 (Herbicidal ratio of 40% or higher and lower than 70%) | 1 (Herbicidal ratio of 5% or higher and lower than 20%) | 5 (Herbicidal ratio of 90% or more (almost completely withered)) | 2 (Herbicidal ratio of 20% or higher and lower than 40%) | 2 (Herbicidal ratio of 20% or higher and lower than 40%) | 5 (Herbicidal ratio of 90% or more (almost completely withered)) | 5 (Herbicidal ratio of 90% or more (almost completely withered)) | – | – | – | – | – | – | – | Herbicidal effect grade, F: Digitaria ciliaris (Digitaria ciliaris [2]): 4 (Herbicidal ratio of 70% or higher and lower than 90%); Herbicidal effect grade, H: Echinochloa crus-galli var. crus-galli [3]: 5 (Herbicidal ratio of 90% or more (almost completely withered)); Herbicidal effect grade, P: Stellaria media (Stellaria media [4]): 0 (Herbicidal ratio of 5% or lower (almost no effect)); Herbicidal effect grade, Q: Galium spurium (Galium spurium [8]): 0 (Herbicidal ratio of 5% or lower (almost no effect)); Herbicidal effect grade, K: Lolium multiflorum Lam. (Lolium multiflorum Lam.): 5 (Herbicidal ratio of 90% or more (almost completely withered)); Effect on crop grade, c: corn (corn): 3 (Herbicidal ratio of 40% or higher and lower than 70%); Herbicidal effect grade, J: Alopecurus myosuroides (Alopecurus myosuroides): 4 (Herbicidal ratio of 70% or higher and lower than 90%); Effect on crop grade, d: soybean (soybean): 0 (Herbicidal ratio of 5% or lower (almost no effect)); Effect on crop grade, b: directly sowed rice plant (rice): 4 (Herbicidal ratio of 70% or higher and lower than 90%); Effect on crop grade, f: beet (beet [11]): 0 (Herbicidal ratio of 5% or lower (almost no effect)); Effect on crop grade, g: rapeseed (rapeseed): 1 (Herbicidal ratio of 5% or higher and lower than 20%); Herbicidal effect grade, R: Veronica persica (Veronica persica [12]): 0 (Herbicidal ratio of 5% or lower (almost no effect))
2 | CCC(CC1CC(O)=C(c2c(C)cc(Br)cc2OC)C1=O)=NOC (mixture of isomers) [13-001] | 0 (Herbicidal ratio of 5% or lower (almost no effect)) | 5 (Herbicidal ratio of 90% or more (almost completely withered)) | 5 (Herbicidal ratio of 90% or more (almost completely withered)) | 0 (Herbicidal ratio of 5% or lower (almost no effect)) | 0 (Herbicidal ratio of 5% or lower (almost no effect)) | 5 (Herbicidal ratio of 90% or more (almost completely withered)) | 0 (Herbicidal ratio of 5% or lower (almost no effect)) | 1 (Herbicidal ratio of 5% or higher and lower than 20%) | 5 (Herbicidal ratio of 90% or more (almost completely withered)) | 0 (Herbicidal ratio of 5% or lower (almost no effect)) | 5 (Herbicidal ratio of 90% or more (almost completely withered)) | 5 (Herbicidal ratio of 90% or more (almost completely withered)) | 5 (Herbicidal ratio of 90% or more (almost completely withered)) | 5 (Herbicidal ratio of 90% or more (almost completely withered)) | 5 (Herbicidal ratio of 90% or more (almost completely withered)) | 0 (Herbicidal ratio of 5% or lower (almost no effect)) | 0 (Herbicidal ratio of 5% or lower (almost no effect)) | 5 (Herbicidal ratio of 90% or more (almost completely withered)) | 5 (Herbicidal ratio of 90% or more (almost completely withered)) | 4 (Herbicidal ratio of 70% or higher and lower than 90%) | d: soybean, effect on crop grade (soybean): 0 (Herbicidal ratio of 5% or lower (almost no effect)); b: directly sowed rice plant, effect on crop grade (rice): 5 (Herbicidal ratio of 90% or more (almost completely withered)); f: beet, effect on crop grade (beet [11]): 0 (Herbicidal ratio of 5% or lower (almost no effect)); g: rapeseed, effect on crop grade (rapeseed): 0 (Herbicidal ratio of 5% or lower (almost no effect)); R: Veronica persica, herbicidal effect grade (Veronica persica [12]): 0 (Herbicidal ratio of 5% or lower (almost no effect))
3 | CON=C(CC1CC(O)=C(c2c(C)cc(C)cc2OC)C1=O)C1CC1 (mixture of isomers) [13-002] | 4 (Herbicidal ratio of 70% or higher and lower than 90%) | 5 (Herbicidal ratio of 90% or more (almost completely withered)) | 5 (Herbicidal ratio of 90% or more (almost completely withered)) | 4 (Herbicidal ratio of 70% or higher and lower than 90%) | 3 (Herbicidal ratio of 40% or higher and lower than 70%) | 5 (Herbicidal ratio of 90% or more (almost completely withered)) | 3 (Herbicidal ratio of 40% or higher and lower than 70%) | 2 (Herbicidal ratio of 20% or higher and lower than 40%) | 5 (Herbicidal ratio of 90% or more (almost completely withered)) | 5 (Herbicidal ratio of 90% or more (almost completely withered)) | 5 (Herbicidal ratio of 90% or more (almost completely withered)) | 5 (Herbicidal ratio of 90% or more (almost completely withered)) | 5 (Herbicidal ratio of 90% or more (almost completely withered)) | 5 (Herbicidal ratio of 90% or more (almost completely withered)) | 5 (Herbicidal ratio of 90% or more (almost completely withered)) | 0 (Herbicidal ratio of 5% or lower (almost no effect)) | 0 (Herbicidal ratio of 5% or lower (almost no effect)) | 5 (Herbicidal ratio of 90% or more (almost completely withered)) | 5 (Herbicidal ratio of 90% or more (almost completely withered)) | 4 (Herbicidal ratio of 70% or higher and lower than 90%) | d: soybean, effect on crop grade (soybean): 1 (Herbicidal ratio of 5% or higher and lower than 20%); b: directly sowed rice plant, effect on crop grade (rice): 5 (Herbicidal ratio of 90% or more (almost completely withered)); f: beet, effect on crop grade (beet [11]): 0 (Herbicidal ratio of 5% or lower (almost no effect)); g: rapeseed, effect on crop grade (rapeseed): 1 (Herbicidal ratio of 5% or higher and lower than 20%); R: Veronica persica, herbicidal effect grade (Veronica persica [12]): 0 (Herbicidal ratio of 5% or lower (almost no effect))
